Experimental data published in patent US9120812B2, “Pyrimidooxazocine derivatives as mTOR-inhibitors” (SANOFI, priority 2012, dated 2015).
pIC50: −log10 of the molar value. Like-named read-outs stand apart in the source and are kept apart here.

Columns and labels:
[1] = target: mTOR (human recombinant aa mTOR 1360-2549) (Homo sapiens (Human), UniProt P42345); experiment: mTOR enzymatic test by TR-FRET (phosphorylation of GFP-4EBP1); format: biochemical
In short: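 TR-FRET detection of GFP-4EBP1 phosphorylation by a terbium-labelled anti-phospho-Thr46 antibody. Kinase reaction ran 30 min at room temperature, was quenched with EDTA (10 mM final) plus Tb-antibody (2 nM final) and left 60 min. Emission at 520 and 490 nm after 340 nm excitation, reported as the 520/490 ratio.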

PI3Kα (p110α/p85α) = PI3Kα (p110α/p85α) (Homo sapiens (Human), UniProt P42336); experiment: PI3Kα enzymatic test by measuring the consumption of ATP; format: biochemical
In short: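 p110α/p85α (1.7 μg/ml) with 50 μM PIP2 and 2 μM ATP in pH 7.5 Tris buffer with EGTA, MgCl2, Chaps, DTT; reaction 90 min. Remaining ATP measured by luciferin/luciferase luminescence; IC50 from threefold serial dilutions spanning at least 10 000-fold.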

U87MG tumour cells = experiment: Test of in vitro proliferation of U87MG tumour cells; format: cell-based; settings: U87MG cells, 72 hours, read-out: U87 Cell Proliferation IC50
Experimental: Model 4: Test of in vitro Proliferation of U87MG Tumour Cells.
The cell growth is determined with the reagent CellTiter 96 AQueous One Solution Cell Proliferation Assay from Promega (Cat. No. G3581).

[2] = Homo sapiens, U-87 MG, read-out: U87 Akt-pS473 % Inhibition or IC50, nM (IC50), U87MG cells

Chain of mTOR (human recombinant aa mTOR 1360-2549) (P42345 1360-2549): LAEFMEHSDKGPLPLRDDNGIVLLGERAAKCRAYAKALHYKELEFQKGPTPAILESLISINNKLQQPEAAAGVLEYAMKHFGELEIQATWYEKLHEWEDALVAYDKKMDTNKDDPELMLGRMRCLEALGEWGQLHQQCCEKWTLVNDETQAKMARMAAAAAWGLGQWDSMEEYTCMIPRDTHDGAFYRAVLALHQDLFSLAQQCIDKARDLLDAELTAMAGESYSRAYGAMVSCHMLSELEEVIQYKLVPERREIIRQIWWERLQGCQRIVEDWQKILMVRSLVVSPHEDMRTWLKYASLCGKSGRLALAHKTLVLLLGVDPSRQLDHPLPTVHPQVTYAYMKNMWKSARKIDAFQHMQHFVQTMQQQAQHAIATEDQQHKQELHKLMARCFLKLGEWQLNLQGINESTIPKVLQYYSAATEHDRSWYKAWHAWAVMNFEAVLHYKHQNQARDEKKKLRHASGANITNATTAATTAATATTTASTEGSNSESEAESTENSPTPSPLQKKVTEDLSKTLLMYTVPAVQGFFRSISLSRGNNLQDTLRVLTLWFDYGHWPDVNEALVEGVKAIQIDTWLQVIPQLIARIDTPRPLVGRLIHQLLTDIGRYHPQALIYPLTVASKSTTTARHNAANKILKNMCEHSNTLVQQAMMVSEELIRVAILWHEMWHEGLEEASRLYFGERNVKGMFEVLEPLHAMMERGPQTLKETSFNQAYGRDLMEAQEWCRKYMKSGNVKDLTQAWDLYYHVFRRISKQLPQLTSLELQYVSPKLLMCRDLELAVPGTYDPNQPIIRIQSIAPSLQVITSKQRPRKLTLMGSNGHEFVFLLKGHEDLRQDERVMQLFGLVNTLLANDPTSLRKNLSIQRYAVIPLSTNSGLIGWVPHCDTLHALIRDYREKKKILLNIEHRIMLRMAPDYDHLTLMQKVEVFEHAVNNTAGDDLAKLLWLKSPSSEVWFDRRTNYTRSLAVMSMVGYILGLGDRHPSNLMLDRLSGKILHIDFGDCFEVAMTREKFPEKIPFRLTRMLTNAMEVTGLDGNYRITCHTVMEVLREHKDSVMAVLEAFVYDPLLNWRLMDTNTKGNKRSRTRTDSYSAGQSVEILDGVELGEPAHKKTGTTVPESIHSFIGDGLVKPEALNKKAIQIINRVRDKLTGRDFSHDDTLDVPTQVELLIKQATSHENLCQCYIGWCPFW
Chain of PI3Kα (p110α/p85α) (P42336 whole entry): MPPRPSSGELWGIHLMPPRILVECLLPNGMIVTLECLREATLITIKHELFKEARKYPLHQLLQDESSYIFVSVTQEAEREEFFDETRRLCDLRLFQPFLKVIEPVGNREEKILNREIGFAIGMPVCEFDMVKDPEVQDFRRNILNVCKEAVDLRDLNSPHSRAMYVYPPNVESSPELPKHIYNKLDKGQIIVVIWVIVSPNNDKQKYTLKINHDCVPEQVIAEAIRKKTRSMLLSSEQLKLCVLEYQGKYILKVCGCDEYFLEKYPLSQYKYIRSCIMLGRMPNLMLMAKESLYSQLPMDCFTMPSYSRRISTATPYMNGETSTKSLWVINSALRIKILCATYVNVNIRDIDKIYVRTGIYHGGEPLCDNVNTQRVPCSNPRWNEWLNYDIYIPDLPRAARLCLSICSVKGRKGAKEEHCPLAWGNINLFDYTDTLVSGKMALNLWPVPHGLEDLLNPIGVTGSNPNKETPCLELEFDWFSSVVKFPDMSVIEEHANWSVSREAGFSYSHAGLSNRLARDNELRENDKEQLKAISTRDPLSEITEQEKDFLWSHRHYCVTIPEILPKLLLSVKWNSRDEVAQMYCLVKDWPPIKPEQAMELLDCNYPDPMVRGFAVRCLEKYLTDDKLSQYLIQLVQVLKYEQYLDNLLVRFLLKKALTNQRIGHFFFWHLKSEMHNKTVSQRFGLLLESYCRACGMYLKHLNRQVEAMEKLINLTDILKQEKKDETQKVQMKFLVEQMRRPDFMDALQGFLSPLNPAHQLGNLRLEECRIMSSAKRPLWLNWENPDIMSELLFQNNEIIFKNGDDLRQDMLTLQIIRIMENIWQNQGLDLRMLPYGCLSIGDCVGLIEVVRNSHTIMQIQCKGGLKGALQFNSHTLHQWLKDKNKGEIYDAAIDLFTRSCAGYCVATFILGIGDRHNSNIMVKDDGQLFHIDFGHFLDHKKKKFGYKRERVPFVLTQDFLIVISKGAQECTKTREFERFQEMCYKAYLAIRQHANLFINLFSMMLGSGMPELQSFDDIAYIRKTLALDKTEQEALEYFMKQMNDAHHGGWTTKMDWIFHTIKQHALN
Chain of PI3Kα (p110α/p85α) (P27986 whole entry partner): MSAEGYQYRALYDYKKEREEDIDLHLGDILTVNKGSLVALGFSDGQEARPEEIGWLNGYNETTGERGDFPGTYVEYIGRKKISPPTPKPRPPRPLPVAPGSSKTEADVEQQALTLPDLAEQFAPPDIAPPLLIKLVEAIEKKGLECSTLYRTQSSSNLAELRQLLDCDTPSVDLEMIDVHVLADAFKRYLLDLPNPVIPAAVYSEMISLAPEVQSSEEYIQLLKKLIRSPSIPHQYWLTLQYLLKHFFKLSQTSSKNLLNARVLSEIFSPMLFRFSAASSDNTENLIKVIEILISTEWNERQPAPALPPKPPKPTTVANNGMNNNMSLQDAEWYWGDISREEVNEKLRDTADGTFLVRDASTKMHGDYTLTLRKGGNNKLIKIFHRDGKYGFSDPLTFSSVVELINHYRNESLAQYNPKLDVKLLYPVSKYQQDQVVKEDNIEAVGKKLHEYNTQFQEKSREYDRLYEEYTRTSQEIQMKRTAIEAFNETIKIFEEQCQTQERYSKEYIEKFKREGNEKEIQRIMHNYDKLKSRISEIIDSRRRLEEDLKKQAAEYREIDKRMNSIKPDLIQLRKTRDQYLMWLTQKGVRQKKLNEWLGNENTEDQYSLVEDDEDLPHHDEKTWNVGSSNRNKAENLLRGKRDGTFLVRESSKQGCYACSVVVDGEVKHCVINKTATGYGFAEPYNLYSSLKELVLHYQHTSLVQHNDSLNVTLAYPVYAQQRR

| Compound | pIC50 [1] | PI3Ka IC50 (PI3Kα (p110α/p85α)) [nM] | pIC50 (U87MG tumour cells; Homo sapiens, U-87 MG, 72 h) | IC50 (Akt-pS473 in U87MG cells; [2]) [nM] | pIC50 (U87MG tumour cells) | IC50 (Akt-pS473 in U87MG cells; read-out: U87 Akt-pS473 % Inhibition or IC50, nM (IC50), U87MG cells) [nM] |
| --- | --- | --- | --- | --- | --- | --- |
| CCN1CC(C)(C)Oc2nc(N3CCOC[C@@H]3C)nc(-c3ccc(NC(=O)Nc4ccon4)c(F)c3)c2C1=O [Example 159, 1-{4-[6-Ethyl-8,8-dimethyl-2-((S)-3-methylmorpholin-4-yl)-5-oxo-5,6,7,8-tetrahydro-9-oxa-1,3,6-triazabenzocyclohepten-4-yl]-2-fluorophenyl}-3-isoxazol-3-ylurea] | 7.74 | 561 | 7.01 | 21 | – | – |
| CCN1CC(C)(C)Oc2nc(N3CCOC[C@@H]3C)nc(-c3ccc(NC(=O)Nc4cnccn4)c(F)c3)c2C1=O [Example 160, 1-{4-[6-Ethyl-8,8-dimethyl-2-((S)-3-methylmorpholin-4-yl)-5-oxo-5,6,7,8-tetrahydro-9-oxa-1,3,6-triazabenzocyclohepten-4-yl]-2-fluorophenyl}-3-pyrazin-2-ylurea] | 7.39 | 4900 | 6.13 | 114 | – | – |
| CCN1CC(C)(C)Oc2nc(N3CCOC[C@@H]3C)nc(-c3ccc(NC(=O)Nc4ccc(C)nc4)c(F)c3)c2C1=O [Example 161, 1-{4-[6-Ethyl-8,8-dimethyl-2-((S)-3-methylmorpholin-4-yl)-5-oxo-5,6,7,8-tetrahydro-9-oxa-1,3,6-triazabenzocyclohepten-4-yl]-2-fluorophenyl}-3-(6-methylpyridin-3-yl)urea] | 7.42 | 321 | 7.22 | 9 | – | – |
| COCCN1CC(C)(C)Oc2nc(N3CC4CCC(C3)O4)nc(-c3ccc(NC(=O)Nc4ccc(F)cc4F)cc3)c2C1=O [Example 162, 1-(2,4-Difluorophenyl)-3-{4-[6-(2-methoxyethyl)-8,8-dimethyl-2-(8-oxa-3-azabicyclo[3.2.1]oct-3-yl)-5-oxo-5,6,7,8-tetrahydro-9-oxa-1,3,6-triazabenzocyclohepten-4-yl]phenyl}urea] | 6.83 | >10000 | 6.31 | 110 | – | – |
| CCN1CC(C)(C)Oc2nc(N3CCOC[C@@H]3C)nc(-c3ccc(NC(=O)Nc4ccc(OC)cn4)c(F)c3)c2C1=O [Example 163, 1-{4-[6-Ethyl-8,8-dimethyl-2-((S)-3-methylmorpholin-4-yl)-5-oxo-5,6,7,8-tetrahydro-9-oxa-1,3,6-triazabenzocyclohepten-4-yl]-2-fluorophenyl}-3-(5-methoxypyridin-2-yl)urea] | 7.26 | 3870 | 5.99 | 130 | – | – |
| CCN1CC(C)(C)Oc2nc(N3CCOC[C@@H]3C)nc(-c3ccc(NC(=O)Nc4ccc(C)cn4)c(F)c3)c2C1=O [Example 164, 1-{4-[6-Ethyl-8,8-dimethyl-2-((S)-3-methylmorpholin-4-yl)-5-oxo-5,6,7,8-tetrahydro-9-oxa-1,3,6-triazabenzocyclohepten-4-yl]-2-fluorophenyl}-3-(5-methylpyridin-2-yl)urea] | 7.07 | 3800 | 6.06 | 227 | – | – |
| CCN1CC(C)(C)Oc2nc(N3CC4CCC(C3)O4)nc(-c3ccc(NC(=O)Nc4ccon4)c(C)c3)c2C1=O [Example 165, 1-{4-[6-Ethyl-8,8-dimethyl-2-(8-oxa-3-azabicyclo[3.2.1]oct-3-yl)-5-oxo-5,6,7,8-tetrahydro-9-oxa-1,3,6-triazabenzocyclohepten-4-yl]-2-methylphenyl}-3-isoxazol-3-ylurea] | 6.74 | >10000 | 5.38 | 1530 | – | – |
| CCN1CC(C)(C)Oc2nc(N3CCOC[C@@H]3C)nc(-c3ccc(NC(=O)Nc4ccn(C)n4)c(F)c3)c2C1=O [Example 166, 1-{4-[6-Ethyl-8,8-dimethyl-2-((S)-3-methylmorpholin-4-yl)-5-oxo-5,6,7,8-tetrahydro-9-oxa-1,3,6-triazabenzocyclohepten-4-yl]-2-fluorophenyl}-3-(1-methyl-1H-pyrazol-3-yl)urea] | 7.07 | 2300 | 5.90 | 278 | – | – |
| CCN1CC(C)(C)Oc2nc(N3CCOC[C@@H]3C)nc(-c3ccc(NC(=O)Nc4cnc(C)cn4)c(F)c3)c2C1=O [Example 167, 1-{4-[6-Ethyl-8,8-dimethyl-2-((S)-3-methylmorpholin-4-yl)-5-oxo-5,6,7,8-tetrahydro-9-oxa-1,3,6-triazabenzocyclohepten-4-yl]-2-fluorophenyl}-3-(5-methylpyrazin-2-yl)urea] | 7.21 | 3520 | 6.30 | 158 | – | – |
| CCN1CC(C)(C)Oc2nc(N3CCOC[C@@H]3C)nc(-c3ccc(NC(=O)Nc4ccc(C)cn4)cc3)c2C1=O [Example 168, 1-{4-[6-Ethyl-8,8-dimethyl-2-((S)-3-methylmorpholin-4-yl)-5-oxo-5,6,7,8-tetrahydro-9-oxa-1,3,6-triazabenzocyclohepten-4-yl]phenyl}-3-(5-methylpyridin-2-yl)urea] | 7.74 | 1385 | 6.64 | 48 | – | – |
| CCN1CC(C)(C)Oc2nc(N3CCOC[C@@H]3C)nc(-c3ccc(NC(=O)Nc4ccc(C)cn4)cc3)c2C1=O [Example 169, 1-{4-[6-Ethyl-8,8-dimethyl-2-((S)-3-methylmorpholin-4-yl)-5-oxo-5,6,7,8-tetrahydro-9-oxa-1,3,6-triazabenzocyclohepten-4-yl]phenyl}-3-(5-methylpyridin-2-yl)urea] | 7.51 | 1450 | – | – | 6.52 | 26 |
| CCN1CC(C)(C)Oc2nc(N3CCOC[C@@H]3C)nc(-c3ccc(NC(=O)Nc4nnc(C)o4)c(F)c3)c2C1=O [Example 170, 1-{4-[6-Ethyl-8,8-dimethyl-2-((S)-3-methylmorpholin-4-yl)-5-oxo-5,6,7,8-tetrahydro-9-oxa-1,3,6-triazabenzocyclohepten-4-yl]-2-fluorophenyl}-3-(5-methyl-[1,3,4]oxadiazol-2-yl)urea] | 6.97 | 824 | 6.25 | 94 | – | – |
| CCN1CC(C)(C)Oc2nc(N3CCOC[C@@H]3C)nc(-c3ccc(NC(=O)Nc4ccc(N5CCN(C)CC5)nc4)c(F)c3)c2C1=O [Example 171, 1-{4-[6-Ethyl-8,8-dimethyl-2-((S)-3-methylmorpholin-4-yl)-5-oxo-5,6,7,8-tetrahydro-9-oxa-1,3,6-triazabenzocyclohepten-4-yl]-2-fluorophenyl}-3-[6-(4-methylpiperazin-1-yl)pyridin-3-yl]urea] | 7.43 | 308 | 7.04 | 41 | – | – |
| COCCN1CC(C)(C)Oc2nc(N3CC4CCC(C3)O4)nc(-c3ccc(NC(=O)Nc4ccon4)cc3)c2C1=O [Example 172, 1-Isoxazol-3-yl-3-{4-[6-(2-methoxyethyl)-8,8-dimethyl-2-(8-oxa-3-azabicyclo[3.2.1]oct-3-yl)-5-oxo-5,6,7,8-tetrahydro-9-oxa-1,3,6-triazabenzocyclohepten-4-yl]phenyl}urea] | 7.70 | <10000 | 6.70 | 98 | – | – |
| CCN1CC(C)(C)Oc2nc(N3CCOC[C@@H]3C)nc(-c3ccc(NC(=O)Nc4ccc(OC)cn4)cc3)c2C1=O [Example 173, 1-{4-[6-Ethyl-8,8-dimethyl-2-((S)-3-methylmorpholin-4-yl)-5-oxo-5,6,7,8-tetrahydro-9-oxa-1,3,6-triazabenzocyclohepten-4-yl]phenyl}-3-(5-methoxypyridin-2-yl)urea] | 7.92 | 1602 | 6.62 | 42 | – | – |
| CCN1CC(C)(C)Oc2nc(N3CCOC[C@@H]3C)nc(-c3ccc(NC(=O)Nc4ccc(N5CCN(C)CC5)nc4)cc3)c2C1=O [Example 174, 1-{4-[6-Ethyl-8,8-dimethyl-2-((S)-3-methylmorpholin-4-yl)-5-oxo-5,6,7,8-tetrahydro-9-oxa-1,3,6-triazabenzocyclohepten-4-yl]phenyl}-3-[6-(4-methylpiperazin-1-yl)pyridin-3-yl]urea] | 7.66 | 326 | 6.90 | 36 | – | – |
| CCN1CC(C)(C)Oc2nc(N3CC4CCC(C3)O4)nc(-c3ccc(NC(=O)Nc4ccc(C(=O)N(C)CCN(C)C)cc4)cc3)c2C1=O [Example 176, N-(2-Dimethylaminoethyl)-4-(3-{4-[6-ethyl-8,8-dimethyl-2-(8-oxa-3-azabicyclo[3.2.1]oct-3-yl)-5-oxo-5,6,7,8-tetrahydro-9-oxa-1,3,6-triazabenzocyclohepten-4-yl]phenyl}ureido)-N-methylbenzamide] | 7.16 | 100 | 7.08 | 314 | – | – |
| CCN1CC(C)(C)Oc2nc(N3CC4CCC(C3)O4)nc(-c3ccc(NC(=O)Nc4ccc(C(=O)N5CCC(N(C)C)CC5)cc4)cc3)c2C1=O [Example 177, 1-[4-(4-Dimethylaminopiperidine-1-carbonyl)phenyl]-3-{4-[6-ethyl-8,8-dimethyl-2-(8-oxa-3-azabicyclo[3.2.1]oct-3-yl)-5-oxo-5,6,7,8-tetrahydro-9-oxa-1,3,6-triazabenzocyclohepten-4-yl]phenyl}urea] | 7.08 | 87 | 7.24 | 435 | – | – |
